The source made the active and inactive calls. No cut-off for these calls is given here.
Tests used:
[1] = target: T1, Metabotropic glutamate receptor 2 (Rattus norvegicus, UniProt P31421); experiment: Displacement of [3H]LY354740 from rat mGluR2 expressed in CHO cells; type: cell-based
[2] = target: T1, Metabotropic glutamate receptor 2; experiment: Antagonist activity at rat mGlu2 expressed in CHO cells assessed as inhibition of (1S,3R)-ACPD-stimulated GTPgammaS binding; type: functional, cell-based
[3] = species: Homo sapiens; experiment: Binding affinity to NMDA
[4] = target: Metabotropic glutamate receptor 1 (Rattus norvegicus) (UniProt P23385); experiment: Inhibition of glutamate-stimulated rat mGlu1a by calcium mobilization assay at 30 uM; type: functional
Sequence of Metabotropic glutamate receptor 1 (Rattus norvegicus) (P23385 19-1199 limits assumed): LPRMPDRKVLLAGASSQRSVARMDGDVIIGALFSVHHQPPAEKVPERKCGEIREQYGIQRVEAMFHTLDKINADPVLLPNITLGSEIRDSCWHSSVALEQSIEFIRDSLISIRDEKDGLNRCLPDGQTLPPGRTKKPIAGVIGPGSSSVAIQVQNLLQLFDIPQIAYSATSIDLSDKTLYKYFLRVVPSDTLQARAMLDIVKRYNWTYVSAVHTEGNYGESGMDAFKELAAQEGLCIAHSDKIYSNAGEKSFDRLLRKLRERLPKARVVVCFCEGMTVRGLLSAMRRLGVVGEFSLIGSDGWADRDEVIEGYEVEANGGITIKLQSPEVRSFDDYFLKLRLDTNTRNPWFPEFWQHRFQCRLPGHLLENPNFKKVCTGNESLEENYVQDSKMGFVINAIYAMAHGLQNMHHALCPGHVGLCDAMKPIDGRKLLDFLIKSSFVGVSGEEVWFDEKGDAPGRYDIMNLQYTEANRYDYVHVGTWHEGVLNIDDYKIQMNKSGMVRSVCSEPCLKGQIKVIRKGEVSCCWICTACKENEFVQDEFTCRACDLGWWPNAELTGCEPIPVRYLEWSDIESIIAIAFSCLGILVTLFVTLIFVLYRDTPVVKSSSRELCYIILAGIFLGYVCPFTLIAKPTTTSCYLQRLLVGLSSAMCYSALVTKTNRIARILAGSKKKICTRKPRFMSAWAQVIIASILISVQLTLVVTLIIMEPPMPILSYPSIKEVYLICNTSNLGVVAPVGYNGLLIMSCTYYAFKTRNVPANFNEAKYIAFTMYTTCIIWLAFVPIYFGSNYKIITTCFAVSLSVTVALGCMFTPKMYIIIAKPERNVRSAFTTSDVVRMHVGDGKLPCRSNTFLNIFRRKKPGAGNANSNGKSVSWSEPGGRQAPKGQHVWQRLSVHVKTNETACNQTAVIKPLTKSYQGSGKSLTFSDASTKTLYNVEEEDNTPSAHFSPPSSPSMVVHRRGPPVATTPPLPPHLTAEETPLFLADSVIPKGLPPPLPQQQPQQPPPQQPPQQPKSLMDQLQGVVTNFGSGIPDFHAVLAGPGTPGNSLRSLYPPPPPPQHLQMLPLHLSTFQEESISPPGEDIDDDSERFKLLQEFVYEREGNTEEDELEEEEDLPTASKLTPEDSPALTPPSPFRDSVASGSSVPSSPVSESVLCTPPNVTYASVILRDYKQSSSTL

[5] = target: Metabotropic glutamate receptor 5 (Rattus norvegicus) (UniProt P31424); experiment: Inhibition of glutamate-stimulated rat mGlu5a by calcium mobilization assay at 30 uM; type: functional
Sequence of Metabotropic glutamate receptor 5 (Rattus norvegicus) (P31424 21-1203 limits assumed): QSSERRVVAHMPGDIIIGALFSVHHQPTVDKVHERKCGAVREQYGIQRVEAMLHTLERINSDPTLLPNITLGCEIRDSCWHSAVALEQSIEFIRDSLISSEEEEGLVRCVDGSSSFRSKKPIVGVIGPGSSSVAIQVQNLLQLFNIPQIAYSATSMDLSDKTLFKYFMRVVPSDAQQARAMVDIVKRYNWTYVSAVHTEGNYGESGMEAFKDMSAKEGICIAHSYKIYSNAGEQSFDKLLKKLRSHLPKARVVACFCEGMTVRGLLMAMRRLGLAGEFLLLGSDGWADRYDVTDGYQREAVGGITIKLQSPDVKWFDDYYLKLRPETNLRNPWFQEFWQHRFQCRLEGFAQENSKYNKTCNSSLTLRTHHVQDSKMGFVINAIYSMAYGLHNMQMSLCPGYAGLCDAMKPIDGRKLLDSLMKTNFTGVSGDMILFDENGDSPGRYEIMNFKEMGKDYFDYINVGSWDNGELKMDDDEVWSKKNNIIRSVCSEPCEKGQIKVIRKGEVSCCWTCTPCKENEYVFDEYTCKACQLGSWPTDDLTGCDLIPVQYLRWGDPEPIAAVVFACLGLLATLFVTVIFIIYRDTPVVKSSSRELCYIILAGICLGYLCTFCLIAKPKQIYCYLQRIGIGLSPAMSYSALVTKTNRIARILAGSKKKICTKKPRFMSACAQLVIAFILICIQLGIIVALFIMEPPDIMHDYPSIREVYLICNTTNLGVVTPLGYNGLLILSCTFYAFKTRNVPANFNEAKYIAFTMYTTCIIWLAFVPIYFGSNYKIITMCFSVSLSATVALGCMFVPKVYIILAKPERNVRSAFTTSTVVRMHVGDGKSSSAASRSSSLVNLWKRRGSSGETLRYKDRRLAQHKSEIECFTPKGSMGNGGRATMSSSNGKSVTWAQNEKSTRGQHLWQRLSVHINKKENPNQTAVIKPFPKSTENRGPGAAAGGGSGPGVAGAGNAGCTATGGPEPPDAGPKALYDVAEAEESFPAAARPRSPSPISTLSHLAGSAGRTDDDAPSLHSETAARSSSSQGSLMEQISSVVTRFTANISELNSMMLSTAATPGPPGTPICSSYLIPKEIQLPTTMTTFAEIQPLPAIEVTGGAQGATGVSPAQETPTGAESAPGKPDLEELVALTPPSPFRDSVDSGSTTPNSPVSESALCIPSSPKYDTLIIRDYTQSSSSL

[6] = species: Rattus norvegicus; experiment: Displacement of [3H]L-AP4 from mGlu8a receptor
[7] = species: Homo sapiens; experiment: Binding affinity to GABAA
[8] = target: Metabotropic glutamate receptor 2 (Rattus norvegicus) (UniProt P31421); experiment: Antagonist activity at rat mGluR2 expressed in CHO cells co expressing human Kir3.1 assessed as glutamate-induced inward potassium current; type: functional, cell-based
Sequence of Metabotropic glutamate receptor 2 (Rattus norvegicus) (P31421 19-872 limits assumed): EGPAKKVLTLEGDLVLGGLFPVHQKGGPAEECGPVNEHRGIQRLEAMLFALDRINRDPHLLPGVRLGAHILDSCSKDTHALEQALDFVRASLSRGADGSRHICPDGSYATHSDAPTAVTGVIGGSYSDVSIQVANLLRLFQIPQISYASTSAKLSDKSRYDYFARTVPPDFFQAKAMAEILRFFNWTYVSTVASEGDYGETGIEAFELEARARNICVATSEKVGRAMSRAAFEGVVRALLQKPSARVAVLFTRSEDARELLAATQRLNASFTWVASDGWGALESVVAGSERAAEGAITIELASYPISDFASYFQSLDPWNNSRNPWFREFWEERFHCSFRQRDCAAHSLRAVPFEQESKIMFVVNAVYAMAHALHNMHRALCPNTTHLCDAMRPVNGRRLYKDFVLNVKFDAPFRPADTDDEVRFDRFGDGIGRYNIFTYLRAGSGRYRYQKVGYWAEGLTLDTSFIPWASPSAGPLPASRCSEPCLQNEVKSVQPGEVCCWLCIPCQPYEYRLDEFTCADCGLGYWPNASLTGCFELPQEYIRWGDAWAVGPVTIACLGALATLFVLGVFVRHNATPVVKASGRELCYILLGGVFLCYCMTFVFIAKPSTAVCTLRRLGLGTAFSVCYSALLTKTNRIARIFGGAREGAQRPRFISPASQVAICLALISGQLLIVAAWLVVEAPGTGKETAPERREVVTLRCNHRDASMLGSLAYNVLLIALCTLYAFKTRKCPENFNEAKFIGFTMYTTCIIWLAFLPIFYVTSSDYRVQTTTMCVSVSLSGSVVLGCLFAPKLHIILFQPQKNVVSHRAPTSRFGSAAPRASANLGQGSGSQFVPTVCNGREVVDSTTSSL

[9] = target: Metabotropic glutamate receptor 3 (Rattus norvegicus) (UniProt P31422); experiment: Antagonist activity at rat mGluR3 expressed in CHO cells co expressing human Kir3.2c assessed as glutamate-induced inward potassium current; type: functional, cell-based
Sequence of Metabotropic glutamate receptor 3 (Rattus norvegicus) (P31422 23-879 limits assumed): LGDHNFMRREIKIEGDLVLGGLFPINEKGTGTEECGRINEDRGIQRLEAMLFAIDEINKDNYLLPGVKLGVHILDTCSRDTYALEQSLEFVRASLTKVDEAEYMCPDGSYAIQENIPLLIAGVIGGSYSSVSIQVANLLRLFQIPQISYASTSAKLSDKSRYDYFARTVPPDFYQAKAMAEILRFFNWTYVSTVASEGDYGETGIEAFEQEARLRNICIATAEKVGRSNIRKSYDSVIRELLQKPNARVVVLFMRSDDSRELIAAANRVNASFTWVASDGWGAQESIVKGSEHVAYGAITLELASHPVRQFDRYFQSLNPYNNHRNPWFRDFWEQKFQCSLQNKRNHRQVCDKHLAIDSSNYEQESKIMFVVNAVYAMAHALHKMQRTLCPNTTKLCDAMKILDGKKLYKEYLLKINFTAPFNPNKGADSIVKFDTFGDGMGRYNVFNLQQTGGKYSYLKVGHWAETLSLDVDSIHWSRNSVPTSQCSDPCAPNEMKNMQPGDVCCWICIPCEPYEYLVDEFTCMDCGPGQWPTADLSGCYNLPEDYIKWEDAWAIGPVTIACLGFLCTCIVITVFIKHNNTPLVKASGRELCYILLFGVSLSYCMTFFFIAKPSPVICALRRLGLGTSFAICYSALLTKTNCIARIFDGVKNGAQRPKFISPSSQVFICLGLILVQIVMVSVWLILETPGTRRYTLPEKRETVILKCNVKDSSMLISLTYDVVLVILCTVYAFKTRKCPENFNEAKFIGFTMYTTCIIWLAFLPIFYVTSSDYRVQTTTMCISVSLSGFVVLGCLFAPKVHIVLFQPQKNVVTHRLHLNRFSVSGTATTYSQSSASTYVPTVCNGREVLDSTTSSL

[10] = target: Metabotropic glutamate receptor 2 (Rattus norvegicus) (UniProt P31421); experiment: Displacement of [3H]LY354740 from rat mGluR2 expressed in CHO cells assessed as residual binding; type: cell-based

T1 sequence (P31421 whole entry): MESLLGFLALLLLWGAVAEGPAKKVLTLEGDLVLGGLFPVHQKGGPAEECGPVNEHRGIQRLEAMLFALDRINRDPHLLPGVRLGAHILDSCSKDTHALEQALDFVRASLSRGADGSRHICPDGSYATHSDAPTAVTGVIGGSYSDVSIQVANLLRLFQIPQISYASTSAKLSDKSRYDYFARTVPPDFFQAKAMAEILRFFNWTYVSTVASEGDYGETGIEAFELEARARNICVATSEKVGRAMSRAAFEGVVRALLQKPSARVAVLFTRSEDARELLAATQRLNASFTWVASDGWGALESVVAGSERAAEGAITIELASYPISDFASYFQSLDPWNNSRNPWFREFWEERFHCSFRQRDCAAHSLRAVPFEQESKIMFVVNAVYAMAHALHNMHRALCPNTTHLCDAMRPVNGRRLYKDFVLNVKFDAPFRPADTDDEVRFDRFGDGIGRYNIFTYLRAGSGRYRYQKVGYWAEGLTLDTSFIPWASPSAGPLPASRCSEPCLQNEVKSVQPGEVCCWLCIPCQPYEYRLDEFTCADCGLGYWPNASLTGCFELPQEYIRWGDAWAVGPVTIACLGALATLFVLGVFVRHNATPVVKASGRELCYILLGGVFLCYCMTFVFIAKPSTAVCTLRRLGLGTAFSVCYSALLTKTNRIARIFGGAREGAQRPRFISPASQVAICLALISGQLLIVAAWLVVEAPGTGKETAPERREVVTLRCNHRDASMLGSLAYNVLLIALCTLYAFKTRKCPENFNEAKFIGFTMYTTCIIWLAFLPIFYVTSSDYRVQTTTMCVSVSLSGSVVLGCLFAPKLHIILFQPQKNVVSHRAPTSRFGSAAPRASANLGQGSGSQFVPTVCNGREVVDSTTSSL

| Structure (SMILES) | IC50 [1] | also measured |
| --- | --- | --- |
| COC1CCN(c2cc3c(cc2C#Cc2ccccc2)NC(=O)CC(c2cccc(C#N)c2)=N3)CC1 | 82 nM | – |
| O=C1CC(c2cccc(C(F)(F)F)c2)=Nc2ccc(C#Cc3ccccc3)cc2N1 | 268 nM | – |
| O=C1CC(c2ccccc2)=Nc2ccc(C#Cc3ccccc3)cc2N1 | 26 nM | – |
| N#Cc1cccc(C2=Nc3cc(OCC(N)=O)c(C#Cc4ccccc4)cc3NC(=O)C2)c1 | 2400 nM | – |
| Cc1ccc2c(c1)NC(=O)CC(c1cccc(Cl)c1)=N2 | 2820 nM | – |
| N#Cc1cccc(C2=Nc3cc(N4CCSCC4)c(C#Cc4ccccc4)cc3NC(=O)C2)c1 | 40 nM | – |
| N#Cc1cccc(C2=Nc3cc(N4CCS(=O)(=O)CC4)c(C#Cc4ccccc4)cc3NC(=O)C2)c1 | 160 nM | – |
| CC(C)O/C(=C\n1cncn1)c1ccc(Cl)cc1Cl | – | IC50 [2]: 6000 nM |
| CN1CCN(C(=O)c2cccc(C3=Nc4ccc(C#Cc5ccccc5)cc4NC(=O)C3)c2)CC1 | 1040 nM | – |
| COc1cccc(C2=Nc3ccc(C)cc3NC(=O)C2)c1 | 6580 nM | – |
| COc1ccc(C2C(C(=O)OCCN(C)C)=C(C)N=C3SC(c4c(Cl)cccc4Cl)=CN32)cc1 (configuration not stated) | – | IC50 [2]: 30000 nM |
| Cc1ccc2c(c1)NC(=O)CC(c1cccc(C(F)(F)F)c1)=N2 | 1530 nM | – |
| CN1CCN(c2cc3c(cc2C#Cc2ccccc2)NC(=O)CC(c2cccc(C#N)c2)=N3)CC1 | 278 nM | – |
| N#Cc1cccc(C2=Nc3cc(OCC(=O)O)c(C#Cc4ccccc4)cc3NC(=O)C2)c1 | 600 nM | – |
| O=C1CC(c2cccc(C(=O)N3CCOCC3)c2)=Nc2ccc(C#Cc3ccccc3)cc2N1 | 360 nM | – |
| N#Cc1cccc(C2=Nc3cc(N4CC[S+]([O-])CC4)c(C#Cc4ccccc4)cc3NC(=O)C2)c1 | 446 nM | – |
| COCCOc1cc2c(cc1C#Cc1ccccc1)NC(=O)CC(c1cccc(C#N)c1)=N2 | 28 nM | – |
| N#Cc1cccc(C2=Nc3cc(N4CCOCC4)c(C#Cc4ccccc4)cc3NC(=O)C2)c1 | 378 nM | – |
| CC(C)(C)NC(=O)COc1cc2c(cc1C#Cc1ccccc1)NC(=O)CC(c1cccc(C#N)c1)=N2 | 26 nM | – |
| CN(C)c1cc2c(cc1C#Cc1ccccc1)NC(=O)CC(c1cccc(C#N)c1)=N2 | 60 nM | – |
| NC(=O)c1cccc(C2=Nc3ccc(C#Cc4ccccc4)cc3NC(=O)C2)c1 | 358 nM | – |
| N#CCOc1cc2c(cc1C#Cc1ccccc1)NC(=O)CC(c1cccc(C#N)c1)=N2 | 18 nM | – |
| COc1cc2c(cc1C#Cc1ccccc1)NC(=O)CC(c1cccc(C#N)c1)=N2 | 92 nM | – |

Second part, led by results:

| IC50 [1] | Structure (SMILES) | also measured |
| --- | --- | --- |
| 154 nM | O=C1CC(c2cccc(I)c2)=Nc2ccc(C#Cc3ccccc3)cc2N1 | – |
| 400 nM | C=C(C)C#Cc1ccc2c(c1)NC(=O)CC(c1cccc(C#N)c1)=N2 | – |
| 64 nM | Cc1ccc(C#Cc2ccc3c(c2)NC(=O)CC(c2cccc(C#N)c2)=N3)cc1 | – |
| 30 nM | N#Cc1cccc(C2=Nc3ccc(C#Cc4ccccc4F)cc3NC(=O)C2)c1 | – |
| 2900 nM | Cc1ccc2c(c1)NC(=O)CC(c1cccc(C#N)c1)=N2 | – |
| 32 nM | N#Cc1cccc(C2=Nc3ccc(C#Cc4cccs4)cc3NC(=O)C2)c1 | – |
| 962 nM | COc1cccc(C2=Nc3ccc(C#Cc4ccccc4)cc3NC(=O)C2)c1 | – |
| 76 nM | N#Cc1cccc(C2=Nc3ccc(C#Cc4ccccc4Cl)cc3NC(=O)C2)c1 | – |
| 34 nM | N#Cc1cccc(C2=Nc3ccc(C#Cc4ccc(F)cc4)cc3NC(=O)C2)c1 | – |
| 34 nM | N#Cc1cccc(C2=Nc3ccc(C#Cc4ccccc4)cc3NC(=O)C2)c1 | Activity [3]: inactive; Activity [4]: inactive; Activity [5]: inactive; Activity [6]: inactive; Activity [7]: inactive; Activity [8]: Active; Activity [9]: Active; Activity [10]: 25% |
| 68 nM | COc1ccc(C#Cc2ccc3c(c2)NC(=O)CC(c2cccc(C#N)c2)=N3)cc1 | – |
| 80 nM | O=C1CC(c2cccc(Cl)c2)=Nc2ccc(C#Cc3ccccc3)cc2N1 | – |
| 480 nM | N#Cc1cccc(C2=Nc3ccc(C#Cc4ccc(F)cc4F)cc3NC(=O)C2)c1 | – |
| 300 nM | N#Cc1cccc(C2=Nc3ccc(C#Cc4nccs4)cc3NC(=O)C2)c1 | – |
| 26000 nM | CC(C)(O)C#Cc1ccc2c(c1)NC(=O)CC(c1cccc(C#N)c1)=N2 | – |
| 870 nM | N#Cc1cccc(C2=Nc3ccc(C#Cc4ccccn4)cc3NC(=O)C2)c1 | – |
